Tests used:
[1] = target: T1, phenylalanine ammonia-lyase (PAL) (Rhodotorula mucilaginosa, UniProt P10248); assay: Example 1: L-phenylalanine bioreaction with PAL-containing cells, 2-mercaptoethanol at 100, 500 and 1000 mg/liter; format: biochemical, Rhodotorula rubra; settings: after 15 hours, 35° C., pH 10.5; for L-Phenylalanine Produced: ammonium sulfate
T1 construct: endogenous in cells; host or cells: Rhodotorula rubra cells (aerobic fermentation, whole cells harvested by centrifugation)
T1 sequence (P10248 1-713): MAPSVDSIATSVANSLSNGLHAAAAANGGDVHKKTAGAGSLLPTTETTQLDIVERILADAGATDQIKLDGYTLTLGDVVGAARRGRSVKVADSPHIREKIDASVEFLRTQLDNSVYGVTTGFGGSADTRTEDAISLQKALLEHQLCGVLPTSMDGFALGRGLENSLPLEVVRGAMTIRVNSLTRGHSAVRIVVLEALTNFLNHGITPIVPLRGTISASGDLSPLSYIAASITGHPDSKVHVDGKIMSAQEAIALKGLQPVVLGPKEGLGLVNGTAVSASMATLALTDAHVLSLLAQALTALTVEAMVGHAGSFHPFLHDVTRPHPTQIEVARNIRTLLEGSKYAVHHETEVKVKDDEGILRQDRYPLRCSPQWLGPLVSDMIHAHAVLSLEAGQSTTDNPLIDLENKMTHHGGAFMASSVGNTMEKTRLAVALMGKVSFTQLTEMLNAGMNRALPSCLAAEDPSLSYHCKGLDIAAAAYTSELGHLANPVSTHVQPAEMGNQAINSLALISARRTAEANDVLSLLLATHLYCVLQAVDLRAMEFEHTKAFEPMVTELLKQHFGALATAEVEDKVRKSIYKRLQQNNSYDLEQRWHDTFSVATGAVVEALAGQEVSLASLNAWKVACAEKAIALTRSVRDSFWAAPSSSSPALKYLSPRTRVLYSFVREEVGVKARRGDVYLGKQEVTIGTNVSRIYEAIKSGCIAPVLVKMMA
Excerpt: Microbial cells containing a high level of activity of phenylalanine ammonia-lyase (PAL) were produced by aerobic fermentation. A 14 liter fermentor containing 10 liters of nutrient medium was inoculated with a seed culture of Rhodotorula rubra. The nutrient medium consisted of: soy peptone 2.7%; casein hydrolysate (Sheffield NZ-Amine) 1.35%; and corn steep liquor 0.18%. The fermentor contents were aerated and agitated, and the pH was maintained at 6.0 by periodic additions of ammonia water or sulfuric acid. During the fermentation, the PAL activity of the cells was monitored, and when the PAL activity reached a maximum (approximately 22 hours after inoculation), the fermentation was stopped by shutting off the aeration and agitation. The vessel was de-aerated by sparging with nitrogen gas. The microbial cells were separated from the fermentation broth by centrifugation, and stored at 4° C. Four 14 liter vessels were each filled with 13 liters of a substrate solution containing: ammonia, 4 mole/liter; ammonium sulfate, 100 gram/liter; and trans-cinnamic acid, 10 gram/liter. The pH of the solution was 10.5, and the temperature was maintained at 35° C. The vessels were deaerated by sparging with nitrogen gas, and 2-mercaptoethanol was added to three of the vessels in amounts of 100, 500, and 1000 mg/liter. PAL-containing microbial cells were then added to all four vessels in the amount of 1.35 gram (dry basis) per liter. The vessels were agitated for one minute every three hours. Supplemental trans-cinnamic acid was added to the vessels in the amount of 2.5 gram/liter at 3, 6, 9, and 12 hours after the addition of cells. After 15 hours, the concentration of L-phenylalanine in the reaction mixture was measured, and the PAL activity of the cells was determined. The results, which are shown in Table I, indicate that the stability of PAL was enhanced by the reducing agent, with the result that a greater quantity of L-phenylanine was produced. The optimum concentration for 2-mercaptoethanol is between 100 and 1000 mg/liter.

[2] = target: T1, phenylalanine ammonia-lyase (PAL); assay: Example 2: bioreaction in ammonium carbonate or ammonium sulfate substrate solution with 2-mercaptoethanol; format: biochemical, Rhodotorula rubra; settings: 600 mg/l 2-mercaptoethanol, after 15 hours
Method: Four 14 liter vessels were each filled with 13 liters of substrate solution. In two of the vessels, the substrate solution contained: ammonia, 5 mole/liter; ammonium carbonate, 120 gram/liter; and trans-cinnamic acid, 10 gram/liter. The other two vessels contained a substrate solution composed of: ammonia, 4.2 mole/liter; ammonium sulfate, 75 gram/liter; and trans-cinnamic acid, 10 gram/liter. The pH in all four vessels was 10.5, and the temperature was maintained at 35° C. All four vessels were de-aerated by sparging with nitrogen gas. Finally, one vessel of each pair had 600 mg/liter of 2-mercaptoethanol added. The reaction was started by adding PAL-containing microbial cells to each of the four vessels in the amount of 1.7 gram (dry basis) per liter. (The microbial cells were produced by the method of Example 1.) The vessels were agitated for one minute every three hours. Supplemental trans-cinnamic acid was added to all four vessels in the amount of 2.5 gram/liter at 3, 6, 9, and 12 hours after the addition of cells. After 15 hours, the concentration of L-phenylalanine in the reaction mixtures was measured, and the PAL activity of the cells was determined.

[3] = target: T1, phenylalanine ammonia-lyase (PAL); assay: Example 3: optimum concentration of 2-mercaptoethanol, five vessels; format: biochemical, Rhodotorula rubra; settings: for L-Phenylalanine Produced / PAL Activity (% of Activity): after 24 hours
Method: The optimum concentration of 2-mercaptoethanol was determined by carrying out reactions in five vessels with varying concentrations of 2-mercaptoethanol. The procedures used were the same as those described in Examples 1 and 2, with the following modifications. The nutrient medium for the fermentation was composed of: yeast extract (Amber Laboratories, Amberex 1003) 1.35%; corn steep liquor 0.18%; and L-phenylalanine 2.7%. The substrate solution for L-phenylalanine production contained: ammonia 5.1 mole/liter; ammonium sulfate 120 gram/liter; and cinnamic acid 10 gram/liter, with 2.5 gram/liter added at 3, 6, 9, and 12 hours after the addition of cells. The quantity of cells added to each of the vessels was 1.6 gram (dry basis) per liter. After 24 hours, the L-phenylalanine concentration in the reaction mixture was measured, and the PAL activity of the cells was determined.

[4] = target: T1, phenylalanine ammonia-lyase (PAL); assay: Example 4: 300 gallon reactor bioreaction with 2-mercaptoethanol; format: biochemical, Rhodotorula rubra; settings: 404 ml 2-mercaptoethanol in 900 liters substrate solution, after 53.5 hours, 30° C.
Method: PAL-containing microbial cells were cultivated in three 250-liter fermentors, each containing 163 liters of nutrient medium. The medium was composed of: yeast extract (Amber Laboratories, Amberex 1003) 1.38%; beet molasses 4%; diammonium phosphate 0.18%; and L-phenylalanine 0.92%. The fermentor was inoculated with a shake flask culture of Rhodotorula rubra. The fermentation was carried out at 30° C. with aeration and agitation. The pH was maintained at 6.0 by periodic additions of ammonia water or sulfuric acid. During the fermentation, the PAL activity of the microbial cells was monitored, and when the PAL activity reached a maximum, at 28-30 hours after inoculation, the fermentations were stopped by shutting off the aeration and agitation. The vessels were de-aerated by sparging with nitrogen gas. Microbial cells were harvested by means of a Westfalia disc-bowl centrifuge. The combined yield of cells from all three fermentators was 5.04 kg (dry basis). Substrate solution for L-phenylalanine production was prepared as follows. […] The trans-cinnamic acid concentration in the reaction mixture was monitored at intervals of approximately two hours, and supplemental trans-cinnamic acid was added whenever necessary, to maintain a concentration of between 10 and 18 gram/liter. […]

[5] = system: PAL; settings: cited from earlier work

## OCCS [2-mercaptoethanol]
[1]; 100 mg/l 2-mercaptoethanol
  PAL Activty (% of Initial): 31.2 % of Initial
  L-Phenylalanine Produced: 7.34 gm/l
[1]; 500 mg/l 2-mercaptoethanol
  PAL Activty (% of Initial): 39.4 % of Initial
  L-Phenylalanine Produced: 9.26 gm/l
[1]; 1,000 mg/l 2-mercaptoethanol
  PAL Activty (% of Initial): 35.9 % of Initial
  L-Phenylalanine Produced: 8.54 gm/l
[2]; ammonium carbonate
  L-Phenylalanine Produced: 12.9 gm/l
  PAL Activity (% of Initial): 46.6 % of Initial
[2]; ammonium sulfate
  L-Phenylalanine Produced: 10.8 gm/l
  PAL Activity (% of Initial): 38.7 % of Initial
[3]; 300 mg/l 2-mercaptoethanol
  L-Phenylalanine Produced: 12.6 gram/l
  PAL Activity (% of Activity): 27.5 % of Activity
[3]; 400 mg/l 2-mercaptoethanol
  L-Phenylalanine Produced: 14.6 gram/l
  PAL Activity (% of Activity): 32.4 % of Activity
[3]; 500 mg/l 2-mercaptoethanol
  L-Phenylalanine Produced: 15.4 gram/l
  PAL Activity (% of Activity): 34.2 % of Activity
[3]; 600 mg/l 2-mercaptoethanol
  L-Phenylalanine Produced: 14.8 gram/l
  PAL Activity (% of Activity): 32.7 % of Activity
[3]; 800 mg/l 2-mercaptoethanol
  L-Phenylalanine Produced: 14.6 gram/l
  PAL Activity (% of Activity): 31.7 % of Activity
[3]; Example 3 conditions
  optimum concentration of 2-mercaptoethanol: approximately 500 mg/liter
[4]
  PAL activity of the cells in the reactor, of the initial activity: 27%
[4]; ammonium carbonate
  L-phenylalanine in the reaction mixture: 33.3 gram/liter

## CC[C@H](C)[C@H](N)C(=O)O [L-isoleucine, reference compound]
[5]; extended the useful period of activity of the enzyme
  effect on PAL stability: stabilizing effect

## O=C(O)/C=C/c1ccccc1 [t-cinnamic acid]
[5]; t-cinnamic acid 150 mM (substrate inhibition)
  rate of conversion of L-phenylalanine relative to the maximum rate: one-half

— US4574117A, “Stabilization of phenylalanine ammonia-lyase in a bioreactor using reducing agents” (Genex Corporation, priority 1984, dated 1986)
